Test results as given in patent US12559750B2, “Methods and compositions for treatment of polycystic kidney disease” (Regulus Therapeutics Inc., priority 2021, dated 2026).
pIC50: −log10 of the molar value. One block for each sequence: values may come before it. e = 2'-O-(2-methoxyethyl) (MOE); k = constrained ethyl (cEt); d = 2'-deoxy (DNA); m = 2'-O-methyl; f = 2'-fluoro

Molecular target: AMPA-R
Assay: [3H]AMPA radioligand binding assay on rat brain synaptic membranes;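 note: competition binding in which test compounds at rising concentrations displace [3H]AMPA from AMPA-R on rat brain synaptic membranes, with reduced bound radioligand as read-out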
Conditions: for % Inhibition @ Concentration 100 uM: Table 8 (3′-terminal nucleobase/sugar variants); for % Inhibition @ Concentration 0.1 uM: Table 8, 0.1 uM; for % Inhibition @ Concentration 1 uM: Table 8, 1 uM; for % Inhibition @ Concentration 10 uM: Table 8, 10 uM

Sequence: TEGSTEAASGSCMAFCFUFUMUSCS (TGTAAGCACUUUC; anti-miR; 2'-MOE at 1, 3, cEt at 2, 5, 6, 12, 13, 2'-O-methyl at 7, 11, 2'-fluoro at 8, 9, 10, other sugars and backbone not given here) [RG-NG-1020]
- pIC50 (Experiment #3): < 4.00
- % Inhibition @ 0.1 uM (Experiment #3, 0.1 uM): 17%
- % Inhibition @ 1 uM (Experiment #3, 1 uM): 6.6%
- % Inhibition @ 10 uM (Experiment #3, 10 uM): −23.3%
- % Inhibition @ 100 uM (Experiment #3, 100 uM): −7.9%

Sequence: AMGLCLALCLUMTLUCM [RG-NG-1029]
- pIC50 (Experiment #2): < 4.00
- % Inhibition @ 0.1 uM (Experiment #2, 0.1 uM): 0.9%
- % Inhibition @ 1 uM (Experiment #2, 1 uM): 15.9%
- % Inhibition @ 10 uM (Experiment #2, 10 uM): 7%
- % Inhibition @ 100 uM (Experiment #2, 100 uM): 38.4%

Sequence: ALGLCLALCLTLTLTLGL [RG-NG-1006]
- pIC50 (Experiment #1): 5.56
- % Inhibition @ 0.1 uM (Experiment #1, 0.1 uM): 6.7%
- % Inhibition @ 1 uM (Experiment #1, 1 uM): 35.3%
- % Inhibition @ 10 uM (Experiment #1, 10 uM): 68.9%
- % Inhibition @ 100 uM (Experiment #1, 100 uM): 93.9%

Sequence: ASCSTGSUSAASGSCMAFCFUFUMUSCS (ACTGUAAGCACUUUC; cEt at 1, 2, 4, 5, 7, 8, 14, 15, 2'-O-methyl at 9, 13, 2'-fluoro at 10, 11, 12, other sugars and backbone not given here) [RG-NG-1019]
- pIC50 (Experiment #3): < 4.00
- % Inhibition @ 0.1 uM (Experiment #3, 0.1 uM): 12.9%
- % Inhibition @ 1 uM (Experiment #3, 1 uM): 17.2%
- % Inhibition @ 10 uM (Experiment #3, 10 uM): 15.6%
- % Inhibition @ 100 uM (Experiment #3, 100 uM): 21%

Sequence: USASAMGCSASCSUMUMUSGS (antisense UAAGCACUUUG; cEt at 1, 2, 5, 6, 7, 10, 11, 2'-O-methyl at 3, 8, 9, other sugars and backbone not given here) [RG-NG-1005]
- pIC50 (Experiment #1): < 4.00
- % Inhibition @ 0.1 uM (Experiment #1, 0.1 uM): 10.8%
- % Inhibition @ 1 uM (Experiment #1, 1 uM): −1.3%
- % Inhibition @ 10 uM (Experiment #1, 10 uM): 0.8%
- % Inhibition @ 100 uM (Experiment #1, 100 uM): 28.3%

Sequence: CETEGSCEAECETEGSTEADASGSCMAFCFUFUMUSGS (CTGCACTGTAAGCACUUUG; sugars from the 5' end eekeeeekedkkmfffmkk, backbone and methylation of C not given here) [RG-NG-1040]
- pIC50 (Table 8): 4.54
- % Inhibition @ Concentration 100 uM: 64.1%
- % Inhibition @ Concentration 0.1 uM: 10.4%
- % Inhibition @ Concentration 1 uM: 14.4%
- % Inhibition @ Concentration 10 uM: 38.9%

Sequence: AECETEGSTEAASGSCMAFCFUFUMUSCS (ACTGTAAGCACUUUC; S-cEt, 2'-MOE, 2'-F, 2'-OMe modifications; modified_base 3 OTHER; thymine; modified_base 5 OTHER; misc_feature 1..15 Synthetic: RG-NG-1018; modified_base 1..3 OTHER; 2'-O-methoxyethyl nucleoside; modified_base 4 OTHER; S-constrained ethyl nucleoside; modified_base 7..8 OTHER; modified_base 9 OTHER; 2'-O-methyl nucleoside; modified_base 10..12 OTHE)
- pIC50 (Experiment #3): < 4.00
- % Inhibition @ 0.1 uM (Experiment #3, 0.1 uM): 3%
- % Inhibition @ 1 uM (Experiment #3, 1 uM): 8.1%
- % Inhibition @ 10 uM (Experiment #3, 10 uM): 1%
- % Inhibition @ 100 uM (Experiment #3, 100 uM): 12.3%

Sequence: ASGSCFAFCFUFUFUSGS [RG-NG-1007]
- pIC50 (Experiment #2): 5.77
- % Inhibition @ 0.1 uM (Experiment #2, 0.1 uM): 3.1%
- % Inhibition @ 1 uM (Experiment #2, 1 uM): 39.7%
- % Inhibition @ 10 uM (Experiment #2, 10 uM): 83.2%
- % Inhibition @ 100 uM (Experiment #2, 100 uM): 94.3%

Sequence: TEAASGSCMAFCFUFUMUSCS (TAAGCACUUUC; 2'-MOE at 1, cEt at 3, 4, 10, 11, 2'-O-methyl at 5, 9, 2'-fluoro at 6, 7, 8, other sugars and backbone not given here) [RG-NG-1021]
- pIC50 (Experiment #3): < 4.00
- % Inhibition @ 0.1 uM (Experiment #3, 0.1 uM): −2%
- % Inhibition @ 1 uM (Experiment #3, 1 uM): −10.9%
- % Inhibition @ 10 uM (Experiment #3, 10 uM): −11.5%
- % Inhibition @ 100 uM (Experiment #3, 100 uM): −1.5%

The next lines start with the values.

- pIC50 (Table 8): 6.12
- % Inhibition @ Concentration 100 uM: 98.5%
- % Inhibition @ Concentration 0.1 uM: 27.2%
- % Inhibition @ Concentration 1 uM: 46.3%
- % Inhibition @ Concentration 10 uM: 91.3%
Sequence: ASGSCMAFCFUFUMUSIM [RG-NG-1035]

- pIC50 (Experiment #3): 5.73
- % Inhibition @ 0.1 uM (Experiment #3, 0.1 uM): −3.8%
- % Inhibition @ 1 uM (Experiment #3, 1 uM): 36.5%
- % Inhibition @ 10 uM (Experiment #3, 10 uM): 84.1%
- % Inhibition @ 100 uM (Experiment #3, 100 uM): 96.4%
Sequence: ASGSCMAFCFUFUMUSGE [RG-NG-1025]

- pIC50 (Experiment #1): 4.76
- % Inhibition @ 0.1 uM (Experiment #1, 0.1 uM): −4.7%
- % Inhibition @ 1 uM (Experiment #1, 1 uM): 4.7%
- % Inhibition @ 10 uM (Experiment #1, 10 uM): 44.2%
- % Inhibition @ 100 uM (Experiment #1, 100 uM): 76.1%
Sequence: USASASGSCSASCSUSUSUSGS [RG-NG-1004]

- pIC50 (Experiment #2): 5.59
- % Inhibition @ 0.1 uM (Experiment #2, 0.1 uM): −2.2%
- % Inhibition @ 1 uM (Experiment #2, 1 uM): 30.6%
- % Inhibition @ 10 uM (Experiment #2, 10 uM): 78.5%
- % Inhibition @ 100 uM (Experiment #2, 100 uM): 94%
Sequence: ALGLCMAFCFUFUMUSGS [RG-NG-1011]

- pIC50 (Experiment #2): < 4.00
- % Inhibition @ 0.1 uM (Experiment #2, 0.1 uM): −3.3%
- % Inhibition @ 1 uM (Experiment #2, 1 uM): −1.1%
- % Inhibition @ 10 uM (Experiment #2, 10 uM): −3.5%
- % Inhibition @ 100 uM (Experiment #2, 100 uM): 2.3%
Sequence: ASGSCMALCFUFUMUSCS [RG-NG-1026]

- pIC50 (Experiment #2): < 4.00
- % Inhibition @ 0.1 uM (Experiment #2, 0.1 uM): 15.7%
- % Inhibition @ 1 uM (Experiment #2, 1 uM): 2.1%
- % Inhibition @ 10 uM (Experiment #2, 10 uM): 2%
- % Inhibition @ 100 uM (Experiment #2, 100 uM): 2.7%
Sequence: ASGSCSALCFUFUMUSCS [RG-NG-1028]

- % Inhibition @ Concentration 100 uM: 30.2%
- % Inhibition @ Concentration 0.1 uM: 27.3%
- % Inhibition @ Concentration 1 uM: 27%
- % Inhibition @ Concentration 10 uM: 35.8%
Sequence: ASGSCMAFCFUFUMUSED [RG-NG-1039]

- pIC50 (Experiment #2): 5.46
- % Inhibition @ 0.1 uM (Experiment #2, 0.1 uM): 0.7%
- % Inhibition @ 1 uM (Experiment #2, 1 uM): 31.3%
- % Inhibition @ 10 uM (Experiment #2, 10 uM): 70.1%
- % Inhibition @ 100 uM (Experiment #2, 100 uM): 86.4%
Sequence: AEGECMAFCFUFUMUSGS [RG-NG-1010]
